Measured values taken from PubChem BioAssay (NCI).
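How tested: cells in 96-well plates exposed to compound for 48 hours at five concentrations. GI50 = concentration required for 50% inhibition of growth. TGI: total growth inhibition.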

Experiments:
Experiment in all cases: NCI-60 cell line screen, 48 h
MOLT-4 leukemia = tested on: MOLT-4 leukemia
MDA-N = tested on: MDA-N
SF-268 CNS = tested on: SF-268 CNS
SNB-19 CNS = tested on: SNB-19 CNS
LOX IMVI melanoma = tested on: LOX IMVI melanoma
ACHN renal = tested on: ACHN renal
SW-620 colon = tested on: SW-620 colon
SNB-75 CNS = tested on: SNB-75 CNS
SK-MEL-5 melanoma = tested on: SK-MEL-5 melanoma
HOP-92 NSCLC = tested on: HOP-92 NSCLC
UACC-257 melanoma = tested on: UACC-257 melanoma
NCI-H460 lung = tested on: NCI-H460 lung
HOP-62 NSCLC = tested on: HOP-62 NSCLC
HL-60(TB) leukemia = tested on: HL-60(TB) leukemia
K-562 leukemia = tested on: K-562 leukemia
TK-10 renal = tested on: TK-10 renal
SF-539 CNS = tested on: SF-539 CNS
SR leukemia = tested on: SR leukemia
NCI-H23 lung = tested on: NCI-H23 lung
MALME-3M melanoma = tested on: MALME-3M melanoma
NCI/ADR-RES ovarian = tested on: NCI/ADR-RES ovarian
COLO 205 colon = tested on: COLO 205 colon
RPMI-8226 leukemia = tested on: RPMI-8226 leukemia
OVCAR-8 ovarian = tested on: OVCAR-8 ovarian
HCT-15 colon = tested on: HCT-15 colon
NCI-H226 lung = tested on: NCI-H226 lung
HT29 colon = tested on: HT29 colon
HS 578T breast = tested on: HS 578T breast
786-0 renal = tested on: 786-0 renal
EKVX NSCLC = tested on: EKVX NSCLC
CAKI-1 renal = tested on: CAKI-1 renal
KM12 colon = tested on: KM12 colon
SF-295 CNS = tested on: SF-295 CNS
MCF7 breast = tested on: MCF7 breast
OVCAR-5 ovarian = tested on: OVCAR-5 ovarian
SK-MEL-28 melanoma = tested on: SK-MEL-28 melanoma
SK-MEL-2 melanoma = tested on: SK-MEL-2 melanoma
M14 melanoma = tested on: M14 melanoma
UO-31 renal = tested on: UO-31 renal
CCRF-CEM leukemia = tested on: CCRF-CEM leukemia
OVCAR-3 ovarian = tested on: OVCAR-3 ovarian
A498 renal = tested on: A498 renal
HCC-2998 colon = tested on: HCC-2998 colon
BT-549 breast = tested on: BT-549 breast
A549 NSCLC = tested on: A549 NSCLC
OVCAR-4 ovarian = tested on: OVCAR-4 ovarian
UACC-62 melanoma = tested on: UACC-62 melanoma
PC-3 prostate = tested on: PC-3 prostate
HCT-116 colon = tested on: HCT-116 colon
NCI-H522 lung = tested on: NCI-H522 lung
IGROV1 ovarian = tested on: IGROV1 ovarian
U251 CNS = tested on: U251 CNS
T-47D breast = tested on: T-47D breast
SK-OV-3 ovarian = tested on: SK-OV-3 ovarian
MDA-MB-231 breast = tested on: MDA-MB-231 breast
SN12C renal = tested on: SN12C renal
DU-145 prostate = tested on: DU-145 prostate

## COc1ccc2nc3cccc([N+](=O)[O-])c3c(NCCCCCC(=O)O)c2c1
MOLT-4 leukemia
  GI50: 26.6 nM
  TGI: 284 nM
MDA-N
  GI50: 26.3 nM
  TGI: 117 nM
SF-268 CNS
  GI50: 75.5 nM
  TGI: 701 nM
SNB-19 CNS
  GI50: 178 nM
  TGI: 2840 nM
LOX IMVI melanoma
  GI50: 171 nM
  TGI: 487 nM
ACHN renal
  GI50: 56.2 nM
  TGI: 582 nM
SW-620 colon
  TGI: 268 nM
SNB-75 CNS
  GI50: 282 nM
  TGI: 1570 nM
SK-MEL-5 melanoma
  GI50: 11.6 nM
  TGI: 69.4 nM
HOP-92 NSCLC
  GI50: 87.8 nM
  TGI: 456 nM
UACC-257 melanoma
  GI50: 257 nM
  TGI: 926 nM
NCI-H460 lung
  GI50: 44.2 nM
  TGI: 806 nM
HOP-62 NSCLC
  GI50: 27.7 nM
  TGI: 187 nM
HL-60(TB) leukemia
  GI50: 37.2 nM
  TGI: 6200 nM
K-562 leukemia
  GI50: 10.9 nM
  TGI: 25.1 nM
TK-10 renal
  GI50: 1720 nM
  TGI: 17600 nM
SF-539 CNS
  GI50: 404 nM
  TGI: 1440 nM
SR leukemia
  GI50: 39.5 nM
NCI-H23 lung
  GI50: 952 nM
  TGI: 4190 nM
MALME-3M melanoma
  GI50: 43.7 nM
  TGI: 194 nM
NCI/ADR-RES ovarian
  GI50: 313 nM
  TGI: 2610 nM
COLO 205 colon
  TGI: 78 nM
RPMI-8226 leukemia
  GI50: 13.1 nM
  TGI: 52 nM
OVCAR-8 ovarian
  GI50: 87.7 nM
  TGI: 2220 nM
HCT-15 colon
  GI50: 25.1 nM
NCI-H226 lung
  GI50: 306 nM
  TGI: 1330 nM
HT29 colon
  GI50: 14 nM
  TGI: 392 nM
HS 578T breast
  GI50: 456 nM
  TGI: 2030 nM
786-0 renal
  GI50: 79.9 nM
  TGI: 548 nM
EKVX NSCLC
  GI50: 297 nM
  TGI: 1970 nM
CAKI-1 renal
  GI50: 36.5 nM
  TGI: 284 nM
KM12 colon
  GI50: 26.2 nM
  TGI: 220 nM
SF-295 CNS
  GI50: 447 nM
  TGI: 4550 nM
MCF7 breast
  GI50: 17.4 nM
  TGI: 596 nM
OVCAR-5 ovarian
  GI50: 132 nM
  TGI: 1110 nM
SK-MEL-28 melanoma
  GI50: 159 nM
  TGI: 548 nM
SK-MEL-2 melanoma
  GI50: 34.2 nM
  TGI: 117 nM
M14 melanoma
  GI50: 15 nM
  TGI: 46.6 nM
UO-31 renal
  GI50: 161 nM
  TGI: 484 nM
CCRF-CEM leukemia
  GI50: 39.7 nM
  TGI: 302 nM
OVCAR-3 ovarian
  GI50: 120 nM
  TGI: 2640 nM
A498 renal
  GI50: 1870 nM
  TGI: 4280 nM
HCC-2998 colon
  GI50: 1180 nM
  TGI: 2500 nM
BT-549 breast
  GI50: 131 nM
  TGI: 422 nM
A549 NSCLC
  GI50: 120 nM
  TGI: 2170 nM
OVCAR-4 ovarian
  GI50: 393 nM
  TGI: 1720 nM
UACC-62 melanoma
  GI50: 183 nM
  TGI: 465 nM
PC-3 prostate
  TGI: 1360 nM
HCT-116 colon
  GI50: 10.7 nM
  TGI: 3510 nM
NCI-H522 lung
  GI50: 36.3 nM
  TGI: 101 nM
IGROV1 ovarian
  GI50: 231 nM
  TGI: 1160 nM
U251 CNS
  GI50: 22.2 nM
  TGI: 2460 nM
T-47D breast
  GI50: 856 nM
  TGI: 12000 nM
SK-OV-3 ovarian
  GI50: 915 nM
  TGI: 5410 nM
MDA-MB-231 breast
  GI50: 838 nM
  TGI: 74000 nM
SN12C renal
  GI50: 131 nM
  TGI: 1160 nM
DU-145 prostate
  GI50: 43 nM
  TGI: 1020 nM
